Results taken from patent US10898595B2, “Core-satellite nanocomposites for MRI and photothermal therapy” (The Regents of the University of Michigan, priority 2013, dated 2021).

System: SUM-159 tumors
Assay: In vivo PTT using IONP-IR820
Set-up: species or system mice
Details: 10 minutes
Experimental: Tumor-bearing nude mice were randomly allocated into three groups (five mice in each group) when the solid SUM-159 tumors had grown to ˜80 mm3. Mice in each group were intravenously injected with IONP-IR820 (20 mg Fe/Kg mouse body weight), the same amount of IR820, the same amount of IONPs. 24 h post injection, tumors were irradiated with a diode laser (λ=885 nm) at a laser power of 0.5 W for 10 minutes. The highest tumor surface temperature was recorded by an infrared camera (FLIR Systems, i7, Boston, Mass.) before and after application of the laser.
Mice were humanely euthanized by CO2 inhalation 24 h following a single I.V. bolus dose of nanoparticles. The harvested tissue was formalin-fixed, embedded in paraffin and sectioned. Unstained slides were dewaxed using xylene and rehydrated using graded alcohol. Rehydrated slides were stained with Hematoxylin and eosin (H&E staining) for visualization of nucleic acids and cytoplasm.

CC1(C)C(=CC=C2CCCC(C=CC3=[N+](CCCCS(=O)(=O)[O-])c4ccc5ccccc5c4C3(C)C)=C2Cl)N(CCCCS(=O)(=O)[O-])c2ccc3ccccc3c21.[Na+] [IR820]
Tumor tissue hemorrhaging right after laser irradiation (24 h post IV injection (20 mg Fe/Kg or same amount), 885 nm laser 0.5 W): does not have any obvious hemorrhaging
Average temperature increase at the tumor site (24 h post IV injection, laser 0.5 W, infrared camera): 8.3±0.8 °C
